Assays:
[1] = target: T1, horseradish peroxidase (HRP) (Armoracia rusticana, UniProt P00433); assay: Ferrocenes as mediators for HRP reduction: ring current at rotating ring disc electrode; format: biochemical; details: ferrocene derivative 0.5 mM, HRP 2.5 μM, disc potential -1.2V; for Relative Current: relative to hydroxymethyl ferrocene = 100%
T1 construct: purchased Biozyme
T1 sequence (P00433 31-353): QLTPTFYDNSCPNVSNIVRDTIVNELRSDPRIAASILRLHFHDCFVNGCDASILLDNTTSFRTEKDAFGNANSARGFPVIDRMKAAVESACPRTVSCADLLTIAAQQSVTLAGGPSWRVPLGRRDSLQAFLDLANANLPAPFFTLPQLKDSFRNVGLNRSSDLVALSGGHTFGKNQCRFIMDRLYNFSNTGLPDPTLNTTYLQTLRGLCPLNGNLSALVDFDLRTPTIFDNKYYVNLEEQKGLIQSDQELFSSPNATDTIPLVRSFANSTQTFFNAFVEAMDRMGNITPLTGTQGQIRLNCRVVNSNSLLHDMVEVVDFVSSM
Excerpt: The electrocatalytic activity of HRP as shown in FIGS. 1 and 2 was typically assessed by immersing the rotating ring disc electrode in a buffered solution containing peroxidase and hydroxymethyl ferrocene mediator. The electrode was rotated at a constant speed to control the transport of material to the disc electrode and subsequently out to the ring. A cathodic potential sweep was applied to the glassy carbon disc at 0.1V/S. The platinum ring was held at constant potential of 0V and the current at the ring as a function of the disc potential was measured. Before determination of the peroxidase generated ring current, following electrode immersion, the ring current (background current) was allowed to stabilize (about 5 min). […] The catalytic current was defined as the net reductive current occurring at a disc potential of 0 volts.
The actual profile of the reduction current seen at the ring electrode is a function of the concentrations of the enzyme and substrates, as well as the rotation rate of the electrode, the sweep rate at the disc and the potential of the ring. The magnitude of this current also depends on the fraction of enzymatically generated ferricinium (oxidized ferrocene) which actually reaches the ring.
(§1) Several ferrocenes shown in Table 1 were tested for their ability to act as mediators for HRP reduction.

[2] = Redox potential (Ep1/2) of ferrocene derivatives; format: physicochemical; details: ferrocene derivative 0.5 mM; potentials quoted vs SCE
Excerpt: A four electrode analogue potentiostat (not shown) which is optionally computer controlled is used to control the potentials at the working electrodes (2) and (3). The disc electrode (2) is connected to a triangular wave generator (not shown) for potential sweeps and the ring electrode (3) is connected to a constant DC voltage source. The electrode rotation is controlled by a Ursar Scientific rotator. All potentials are quoted with respect to a saturated calomel electrode (SCE) with a 1 cm^2 platinum gauze serving as the counter electrode.
as §1

SMILES | Current (ring current) [1] | Relative Current [1] | Ep1/2 (redox potential) [2]
CN(C)Cc1ccc[cH-]1.[Fe+2].c1cc[cH-]c1 [Dimethylaminomethyl Ferrocene] | 0.22 mA | 6% | 490 mv
OC[c-]1cccc1.[Fe+2].c1cc[cH-]c1 [Hydroxymethyl Ferrocene] | 3.8 mA | 100% | 210 mv
O=C([O-])[c-]1cccc1.O=C([O-])[c-]1cccc1.[Fe+2] [1,1' Dicarboxylate Ferrocene] | 0.10 mA | 3% | 420 mv
O=C([O-])[c-]1cccc1.[Fe+2].c1cc[cH-]c1 [Monocarboxylate Ferrocene] | 0.64 mA | 17% | 295 mv
